# From patent US20160228434A1, “TREATMENT OF DISEASES CAUSED BY ABNORMAL LYMPHOCYTE FUNCTION WITH AN HDAC6 INHIBITOR” (priority 2013, published 2016)
# “Also recorded” adds a separate entry of the source.
# Columns and labels:
# Assay type in all cases: in vivo
# [1] = tested on: peripheral B cells (IgM+B220+); assay: Peripheral B cells by flow cytometry in treated NZB/W mice; conditions: 38-week-old NZB/W mice, either low (5 mg/kg) or high (20 mg/kg) dose
# Protocol: (§1) NZB/W mice were injected intraperitoneally 5 days/week with the vehicle control (DMSO), ACY-738 treatment at 5 mg/kg (low-dose), or ACY-738 treatment at 20 mg/kg (high-dose) beginning at 22-weeks-of-age until euthanization at 38 weeks-of-age. ACY-738 was received from Acetylon Pharmaceuticals for use in all studies. Proteinuria and weight were measured every 2 weeks and blood was collected every four weeks for sera analysis. Proteinuria was measured by a standard semi-quantitative test using Siemens Uristix dipsticks (Siemens Healthcare, Deerfield, Ill., USA). Results were quantified according to the manufacturer's instructions and scored as follows: dipstick reading of 0 mg/dL=0, trace=1, 30-100 mg/dL=2, 100-300 mg/dL=3, 300-2000 mg/dL=4, and 2000+ mg/dL=5.
# Blood was collected prior to euthanization using retro-orbital bleeding. RBCs from the peripheral blood were lysed and single cell suspensions were labeled using FITC-conjugated B220 and PerCep710 conjugated IgM anti-mouse mAbs (eBioscience, San Diego, Calif., USA). Mature B cells were identified as IgM^+B220^+ cells. Flow cytometry data was analyzed using FlowJo.
# Similarly, a single-cell suspension of peripheral B cells was obtained from the blood of 38-week-old NZB/W mice and stained for IgM and B220. […]
# NZB/W mice = assay: Survival rate and disease progression (body weight, proteinuria, spleen weight) in NZB/W mice; conditions: for proteinuria: every 2 weeks
# Protocol: as §1
# However, half of the NZB/W mice receiving the vehicle control alone died before termination of the study at 38 weeks-of-age (FIG. 6 A). Body weight increased as NZB/W mice aged following treatment with ACY-738. Vehicle control-treated NZB/W mice experienced weight loss concomitantly with increased proteinuria (FIG. 6 B).
# Throughout the treatment period, NZB/W mice were monitored for changes in proteinuria and body weight.
# Because SLE is characterized by enlargement of the spleen, splenomegaly was assessed in mice following euthanization by determining the total spleen weight along with the spleen: body weight ratio. Both spleen weight and spleen: body weight ratio were decreased following HDAC6 inhibition in a concentration dependent manner (FIG. 6 D-E).
# [2] = tested on: sera anti-dsDNA, IgG, IgG2a, IgG2b, IgM; assay: Sera anti-dsDNA and Ig isotype levels by ELISA in treated NZB/W mice
# Protocol: as §1
# Sera were collected prior to initiation of treatment at 22 weeks-of-age and every 4 weeks until euthanization. The mice were anesthetized using isoflurane (Piramal Healthcare, Mumbai, Maharashtra, India) and bled from the retro-orbital sinus. Blood was allowed to clot for 2 hours and then centrifuged for 15 min at 10,000×g. The levels of sera antibodies to dsDNA were measured by ELISA. Sera samples were added to the plate at a 1:100 dilution, followed by a two-fold serial dilution. The plate was read at 380 nm on a Spectramax 340PC microplate spectrophotometer (Molecular Devices, Sunnyvale, Calif., USA). A final dilution of 1:800 was reported.
# sera TGF-β and IL-1β = assay: Sera IL-1β and TGF-β levels by ELISA in treated NZB/W mice
# Protocol: as §1
# IL-1β and TGF-β levels were measured from the sera by ELISA according to the manufacturer's protocol (eBioscience, San Diego, Calif., USA). The plate was read at 450 nm on a microplate spectrophotometer.
# IL-1β and TGF-β levels in the sera of NZB/W mice were measured every 4 weeks starting from 22 weeks until euthanization at 38 weeks-of-age (FIG. 8 A-B). At 22 weeks-of-age there were no significant differences in cytokine levels amongst the three groups. As the NZB/W mice aged, sera levels of TGF-β decreased whereas levels of IL-1β increased (FIG. 8 A-B).
# [3] = tested on: glomerular IL-6, IL-10 and TGF-β mRNA; assay: Glomerular IL-6, IL-10 and TGF-β mRNA by real-time RT-PCR in treated NZB/W mice; conditions: 38-week-old NZB/W mice
# Protocol: as §1
# RNA was isolated using the mirVana miRNA isolation kit according to the manufacturer's protocol (Applied Biosystems, Carlsbad, Calif., USA). The eluates were quantified on a spectrophotometer (Nanodrop, Thermo Scientific, Waltham, Mass., USA). An aliquot was taken and diluted to 1 ng/μL for real-time RT-PCR. The eluted RNA was stored at −80° C.
# IL-6, IL-10 and TGF-β mRNA expression were measured using TaqMan Gene Expression assays (Applied Biosystems, Carlsbad, Calif., USA). The […] using the endogenous control GAPDH, and then the ΔCT was determined by calculating the fold change in expression between the NZB/W mice treated with ACY-738 and the DMSO-treated controls. All samples were run in triplicate.
# The cortical tissue was isolated from one kidney of each mouse and pooled by treatment group. Briefly, cortical tissue was pressed through grading sieves and resuspended in 750 U/mL Worthington type I collagenase at 37° C. for 20 min. Glomerular cells were pelleted, resuspended in RNAlater (QIAGEN, Valencia, Calif., USA), and stored at −20° C. until RNA isolation.
# Following euthanization, glomeruli were isolated from the kidneys and RNA was extracted. Relative glomerular mRNA expression of IL-10, TGF-β, and IL-6 were determined using real-time RT-PCR.
# [4] = tested on: glomerular IgG and C3 deposition; assay: Glomerular immune complex (IgG, C3) deposition by immunofluorescence in treated NZB/W mice; conditions: for glomerular C3 deposition (score 0-4, fluorescence) / glomerular IgG deposition (score 0-4, fluorescence): vs vehicle control
# Protocol: as §1
# One half of each kidney was placed in OCT media and snap-frozen in a slurry containing dry ice and 2-methylbutane (Fisher Scientific, Hampton, N.H., USA). Frozen kidney sections were cut into […] sections and stained with goat anti-mouse IgG conjugated to FITC (Pierce) diluted 1:100 or goat anti-mouse C3-FITC (Pierce, Thermo Fisher Scientific, Waltham, Mass., USA) diluted 1:100. Kidney sections were examined by fluorescent microscopy. Sections were scored (0-4) for immune complex deposition by a pathologist in a blinded manner.
# 5 μM kidney sections were stained with FITC-conjugated C3 or IgG and assessed for fluorescence intensity. (see FIGS. 10A and 10B).
# [5] = NZB/W mice after euthanization at 38 weeks, 5 and 20 mg/kg, concentration dependent
# [6] = NZB/W mice, 5 and 20 mg/kg, dose-dependent
# [7] = 5 mg/kg, vs DMSO-treated controls
# [8] = 16 weeks of treatment, dose not stated
structure (smiles),measurement,setting,value
O=C(NO)c1cnc(NC2(c3ccccc3)CC2)nc1 [ACY-738],percentage of peripheral B cells (IgM+B220+),[1],no effect
same,spleen weight,NZB/W mice; [5],decreased
same,spleen: body weight ratio,NZB/W mice; [5],decreased
same,body weight,"NZB/W mice; NZB/W mice, 22-38 weeks-of-age, vehicle mice lost weight",increased
same,survival,"NZB/W mice; NZB/W mice, high (20 mg/kg) or low (5 mg/kg) dose, to 38 weeks-of-age, half of vehicle mice died",survived to the completion of the study
same,proteinuria,"NZB/W mice; NZB/W mice, high dose 20 mg/kg, 22-38 weeks-of-age, 20 mg/kg",prevented proteinuria from increasing; also recorded: significantly attenuated
same,proteinuria,"NZB/W mice; NZB/W mice, low dose 5 mg/kg, 22-38 weeks-of-age",gradually increased
same,sera IgG2b level,[2]; NZB/W mice at 38 weeks-of-age,significantly increased
same,sera total IgM level,[2]; NZB/W mice at 38 weeks-of-age,slightly increased; also recorded: no effect
same,sera anti-dsDNA,"[2]; NZB/W mice, 5 mg/kg, vs vehicle control, p<0.05",significant decrease
same,sera anti-dsDNA,"[2]; NZB/W mice, 20 mg/kg (high dose), 38 weeks-of-age, 16 weeks of treatment, 20 mg/kg",prevent an increase in anti-dsDNA; also recorded: more pronounced
same,sera IgG2a level,[2]; [6],significantly decreased
same,sera total IgG level,[2]; [6],significantly decreased
same,sera IL-1β level,"sera TGF-β and IL-1β; 38-week-old NZB/W mice, low and high dose, levels rise with age",significantly decreased; also recorded: attenuated the increase
same,sera TGF-β level,"sera TGF-β and IL-1β; NZB/W mice, 22 to 38 weeks-of-age, 5 and 20 mg/kg, levels fall in vehicle mice with age",reverse this trend in a dose-dependent manner; also recorded: attenuated the reduction
same,reduction of glomerular IL-6 mRNA level,[3]; [7],more than 50%
same,reduction of glomerular IL-10 mRNA level,[3]; [7],more than 50%
same,glomerular IL-6 mRNA level,[3]; 20 mg/kg,non-detectable levels
same,glomerular IL-10 mRNA level,[3]; 20 mg/kg,non-detectable levels
same,glomerular TGF-β mRNA,"[3]; 5 and 20 mg/kg, dose-dependent",decreased
same,"glomerular C3 deposition (score 0-4, fluorescence)","[4]; 5 mg/kg, 5 mg/kg",slight decrease; also recorded: no significant effect
same,"glomerular IgG deposition (score 0-4, fluorescence)","[4]; 5 mg/kg, 5 mg/kg",slight decrease; also recorded: no significant effect
same,"glomerular C3 deposition (score 0-4, fluorescence)","[4]; 20 mg/kg (high dose), 20 mg/kg",significantly decreased
same,"glomerular IgG deposition (score 0-4, fluorescence)","[4]; 20 mg/kg (high dose), 20 mg/kg",significantly decreased
same,glomerular C3 deposition level,[4]; [8],significantly decreased
same,glomerular IgG deposition level,[4]; [8],significantly decreased
